Literature values, collected in patent US9028802B2, “Method of differentially diagnosing different types of dementia” (Koninklijke Philips Electronics N.V., priority 2007, dated 2015).

Target: T1, Dopamine Transporter (DAT) (Homo sapiens, UniProt Q01959)
T1 construct: those areas of the brain in which Dopamine Transporters (DAT) are localized, such as the nigrostriatum; from tissue; host or cells: brain (nigrostriatum) of the living subject, in vivo SPECT
Details: SPECT tracer, time point x2 after administration; 'typically'

T1 sequence (Q01959 whole entry): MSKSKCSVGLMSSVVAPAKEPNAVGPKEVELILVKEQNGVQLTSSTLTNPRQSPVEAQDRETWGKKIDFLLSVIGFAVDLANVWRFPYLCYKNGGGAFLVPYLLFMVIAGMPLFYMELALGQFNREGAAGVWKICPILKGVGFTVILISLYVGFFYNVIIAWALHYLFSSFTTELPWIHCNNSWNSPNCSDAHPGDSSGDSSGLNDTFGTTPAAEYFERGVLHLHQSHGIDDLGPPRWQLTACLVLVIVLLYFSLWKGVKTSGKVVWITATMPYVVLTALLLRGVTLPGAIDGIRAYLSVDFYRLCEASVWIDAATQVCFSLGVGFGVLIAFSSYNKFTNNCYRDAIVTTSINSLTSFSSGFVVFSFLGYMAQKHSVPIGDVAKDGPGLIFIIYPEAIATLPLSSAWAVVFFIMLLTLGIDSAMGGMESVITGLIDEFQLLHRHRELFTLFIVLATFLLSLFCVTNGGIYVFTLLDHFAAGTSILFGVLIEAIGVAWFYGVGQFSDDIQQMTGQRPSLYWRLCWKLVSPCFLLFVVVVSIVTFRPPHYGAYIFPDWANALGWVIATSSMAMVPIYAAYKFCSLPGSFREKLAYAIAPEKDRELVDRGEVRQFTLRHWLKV

COC(=O)C1C2CCC(C[C@@H]1c1ccc(I)cc1)N2CCCF (stereo partly shown) [Datscan]
time period after which association with Dopamine Transporters is observed: three to four
